The target of test [1] is RAC-alpha serine/threonine-protein kinase (Homo sapiens) (UniProt P31749). Put plainly: Inhibition of human AKT1 at 10 uM using KGSGSGRPRTSSFAEG as substrate in presence of [33P]ATP by Hotspot assay relative to control.
Another test deals with BT-549. Put plainly: Growth inhibition of human BT549 cells assessed as cell growth at 30 uM incubated for 48 hrs by sulforhodamine B assay relative to control. Format: functional. The following applies: BT-549, 48 h, read-out: Activity.
Test [2] deals with Serine/threonine-protein kinase B-raf (Homo sapiens, UniProt P15056, V600E). Nature of the test: Inhibition of human BRAF V600E mutant using MEK1 as substrate in presence of [33P]ATP by Hotspot assay.
Serine/threonine-protein kinase B-raf, sequence (P15056 2-766 V600E limits assumed): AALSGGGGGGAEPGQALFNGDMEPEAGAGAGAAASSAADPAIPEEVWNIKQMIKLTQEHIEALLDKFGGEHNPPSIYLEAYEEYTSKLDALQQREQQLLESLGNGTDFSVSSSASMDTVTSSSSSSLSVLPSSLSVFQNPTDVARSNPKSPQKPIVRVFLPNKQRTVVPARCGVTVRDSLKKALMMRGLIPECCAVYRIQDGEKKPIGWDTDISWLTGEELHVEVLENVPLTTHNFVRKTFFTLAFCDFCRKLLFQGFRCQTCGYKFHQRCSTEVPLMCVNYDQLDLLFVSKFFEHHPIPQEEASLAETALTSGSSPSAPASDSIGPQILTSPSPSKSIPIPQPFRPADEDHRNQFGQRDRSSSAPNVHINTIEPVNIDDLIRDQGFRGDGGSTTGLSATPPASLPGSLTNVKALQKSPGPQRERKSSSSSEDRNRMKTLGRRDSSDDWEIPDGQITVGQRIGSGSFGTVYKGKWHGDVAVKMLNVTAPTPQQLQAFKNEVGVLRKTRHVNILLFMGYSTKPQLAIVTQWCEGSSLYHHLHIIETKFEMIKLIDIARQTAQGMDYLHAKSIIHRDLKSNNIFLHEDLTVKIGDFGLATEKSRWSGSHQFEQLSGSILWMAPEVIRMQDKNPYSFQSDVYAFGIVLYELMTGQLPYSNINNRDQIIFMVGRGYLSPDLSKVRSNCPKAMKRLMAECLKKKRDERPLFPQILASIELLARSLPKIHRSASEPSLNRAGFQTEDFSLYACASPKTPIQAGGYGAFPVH
The target of test [3] is Epidermal growth factor receptor (Homo sapiens) (UniProt P00533). Put plainly: Inhibition of human EGFR at 10 uM using poly[Glu:Tyr] (4:1) as substrate in presence of [33P]ATP by Hotspot assay relative to control.
Epidermal growth factor receptor (Homo sapiens), sequence (P00533 whole entry): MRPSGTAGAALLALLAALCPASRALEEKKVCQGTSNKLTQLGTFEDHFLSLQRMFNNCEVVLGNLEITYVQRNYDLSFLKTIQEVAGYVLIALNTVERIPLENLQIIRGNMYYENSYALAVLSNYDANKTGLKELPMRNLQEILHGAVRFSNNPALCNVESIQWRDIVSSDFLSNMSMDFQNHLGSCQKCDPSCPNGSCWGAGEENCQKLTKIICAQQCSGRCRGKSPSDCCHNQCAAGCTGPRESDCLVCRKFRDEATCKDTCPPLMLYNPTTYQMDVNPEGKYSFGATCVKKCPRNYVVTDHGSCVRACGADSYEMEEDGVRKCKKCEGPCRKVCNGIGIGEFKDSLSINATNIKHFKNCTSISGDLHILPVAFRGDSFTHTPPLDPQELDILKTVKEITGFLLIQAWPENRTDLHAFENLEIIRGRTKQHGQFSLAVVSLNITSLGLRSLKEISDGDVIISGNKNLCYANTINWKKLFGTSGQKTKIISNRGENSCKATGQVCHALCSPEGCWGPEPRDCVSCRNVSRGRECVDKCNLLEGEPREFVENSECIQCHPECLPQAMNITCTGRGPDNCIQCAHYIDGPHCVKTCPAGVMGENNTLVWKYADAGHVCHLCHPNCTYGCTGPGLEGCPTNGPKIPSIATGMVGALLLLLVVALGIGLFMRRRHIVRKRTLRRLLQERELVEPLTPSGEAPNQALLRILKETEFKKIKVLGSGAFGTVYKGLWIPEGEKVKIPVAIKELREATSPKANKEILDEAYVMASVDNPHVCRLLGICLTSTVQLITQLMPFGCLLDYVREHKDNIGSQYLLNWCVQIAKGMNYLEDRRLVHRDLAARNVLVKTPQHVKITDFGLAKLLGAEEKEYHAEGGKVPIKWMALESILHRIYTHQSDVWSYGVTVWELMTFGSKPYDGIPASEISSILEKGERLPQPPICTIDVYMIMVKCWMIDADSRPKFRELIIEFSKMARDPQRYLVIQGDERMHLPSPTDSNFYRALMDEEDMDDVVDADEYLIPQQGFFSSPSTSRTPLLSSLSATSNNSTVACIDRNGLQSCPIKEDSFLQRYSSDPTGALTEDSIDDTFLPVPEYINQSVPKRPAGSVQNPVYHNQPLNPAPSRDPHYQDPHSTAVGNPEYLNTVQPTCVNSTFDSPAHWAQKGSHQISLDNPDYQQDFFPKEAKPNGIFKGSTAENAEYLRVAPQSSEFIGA
Test [4] deals with SF-268. Put plainly: Growth inhibition of human SF268 cells assessed as cell growth at 5 uM incubated for 48 hrs by sulforhodamine B assay relative to control. Format: functional. The following applies: SF-268, 48 h, read-out: Activity. A general note: In SRB staining, fixed cells bind dye roughly in proportion to their protein.
For another test, the system named is SK-OV-3. Nature of the test: Growth inhibition of human SKOV3 cells assessed as cell growth at 0.5 uM incubated for 48 hrs by sulforhodamine B assay relative to control. Format: functional. The following applies: SK-OV-3, 48 h, read-out: Activity.
For a further test, the system named is Hs-578T. Nature of the test: Growth inhibition of human Hs 578T cells assessed as cell growth at 5 uM incubated for 48 hrs by sulforhodamine B assay relative to control. It is filed as functional. The following applies: read-out: Activity.
A further test has as its system SK-MEL-2. Put plainly: Growth inhibition of human SK-MEL-2 cells assessed as cell growth at 0.5 uM incubated for 48 hrs by sulforhodamine B assay relative to control. The following applies: SK-MEL-2, 48 h, read-out: Activity. Format: functional.
A further test has as its system NCI-H226. Put plainly: Growth inhibition of human NCI-H226 cells assessed as cell growth at 0.005 uM incubated for 48 hrs by sulforhodamine B assay relative to control. Format: functional. The following applies: NCI-H226, 48 h, read-out: Activity.
The test system of the next test is NCI-H322M. Nature of the test: Growth inhibition of human NCI-H322M cells assessed as cell growth at 5 uM incubated for 48 hrs by sulforhodamine B assay relative to control. Format: functional. The following applies: read-out: Activity.
In another test the test system is HOP-62. Put plainly: Growth inhibition of human HOP62 cells assessed as cell growth at 50 uM incubated for 48 hrs by sulforhodamine B assay relative to control. Format: functional. The following applies: HOP-62, 48 h, read-out: Activity.
Another test has as its system SK-MEL-5. Put plainly: Growth inhibition of human SK-MEL-5 cells assessed as cell growth at 50 uM incubated for 48 hrs by sulforhodamine B assay relative to control. It is filed as functional. The following applies: SK-MEL-5, 48 h, read-out: Activity.
A further test has as its system OVCAR-4. Nature of the test: Growth inhibition of human OVCAR4 cells assessed as cell growth at 50 uM incubated for 48 hrs by sulforhodamine B assay relative to control. Format: functional. The following applies: OVCAR-4, 48 h, read-out: Activity.
The subject of a further test is MOLT-4. Nature of the test: Growth inhibition of human MOLT4 cells assessed as cell growth at 0.5 uM incubated for 48 hrs by sulforhodamine B assay relative to control. Format: functional. The following applies: MOLT-4, 48 h, read-out: Activity.
A further test deals with SNB-19. Put plainly: Growth inhibition of human SNB19 cells assessed as cell growth at 0.5 uM incubated for 48 hrs by sulforhodamine B assay relative to control. The following applies: SNB-19, 48 h, read-out: Activity. It is filed as functional.
The test system of the next test is IGROV-1. Put plainly: Growth inhibition of human IGROV1 cells assessed as cell growth at 0.05 uM incubated for 48 hrs by sulforhodamine B assay relative to control. The following applies: IGROV-1, 48 h, read-out: Activity. Format: functional.
In test [5] the test system is HCT-15. Nature of the test: Growth inhibition of human HCT15 cells assessed as cell growth at 0.5 uM incubated for 48 hrs by sulforhodamine B assay relative to control. Format: functional. The following applies: HCT-15, 48 h, read-out: Activity.
A further test deals with T47D. Put plainly: Growth inhibition of human T47D cells assessed as cell growth at 0.5 uM incubated for 48 hrs by sulforhodamine B assay relative to control. Format: functional. The following applies: read-out: Activity.
In test [6] the test system is SNB-75. Put plainly: Growth inhibition of human SNB75 cells assessed as cell growth at 0.5 uM incubated for 48 hrs by sulforhodamine B assay relative to control. Format: functional. The following applies: SNB-75, 48 h, read-out: Activity.
For another test, the system named is RXF 393. Put plainly: Growth inhibition of human RXF393 cells assessed as cell growth at 50 uM incubated for 48 hrs by sulforhodamine B assay relative to control. Format: functional. The following applies: RXF 393, 48 h, read-out: Activity.
Test [7] concerns ACHN. Put plainly: Growth inhibition of human ACHN cells assessed as cell growth at 50 uM incubated for 48 hrs by sulforhodamine B assay relative to control. Format: functional. The following applies: read-out: Activity.
Test [8] deals with Malme-3M. Put plainly: Growth inhibition of human MALME-3M cells assessed as cell growth at 0.005 uM incubated for 48 hrs by sulforhodamine B assay relative to control. Format: functional. The following applies: read-out: Activity.
A further test relates to U-251. Put plainly: Growth inhibition of human U251 cells assessed as cell growth at 0.05 uM incubated for 48 hrs by sulforhodamine B assay relative to control. It is filed as functional. The following applies: U-251, 48 h, read-out: Activity.
Test [9] deals with HCT-15. Nature of the test: Growth inhibition of human HCT15 cells assessed as cell growth at 5 uM incubated for 48 hrs by sulforhodamine B assay relative to control. Format: functional. The following applies: HCT-15, 48 h, read-out: Activity.
In a further test the test system is CAKI-1. Nature of the test: Growth inhibition of human Caki1 cells assessed as cell growth at 0.5 uM incubated for 48 hrs by sulforhodamine B assay relative to control. The following applies: CAKI-1, 48 h, read-out: Activity. It is filed as functional.
Test [10] relates to ACHN. Nature of the test: Growth inhibition of human ACHN cells assessed as cell growth at 0.005 uM incubated for 48 hrs by sulforhodamine B assay relative to control. Format: functional. The following applies: read-out: Activity.
The subject of a further test is HL-60(TB). Put plainly: Growth inhibition of human HL-60(TB) cells assessed as cell growth at 0.5 uM incubated for 48 hrs by sulforhodamine B assay relative to control. Format: functional. The following applies: HL-60, 48 h, read-out: Activity.
For a further test, the system named is SR. Put plainly: Growth inhibition of human SR cells assessed as cell growth at 50 uM incubated for 48 hrs by sulforhodamine B assay relative to control. It is filed as functional. The following applies: read-out: Activity.
Test [11] deals with SNB-75. Nature of the test: Growth inhibition of human SNB75 cells assessed as cell growth at 0.05 uM incubated for 48 hrs by sulforhodamine B assay relative to control. It is filed as functional. The following applies: SNB-75, 48 h, read-out: Activity.
For a further test, the system named is SW-620. Put plainly: Growth inhibition of human SW620 cells assessed as cell growth at 0.05 uM incubated for 48 hrs by sulforhodamine B assay relative to control. It is filed as functional. The following applies: SW-620, 48 h, read-out: Activity.
Another test concerns NCI-H23. Put plainly: Growth inhibition of human NCI-H23 cells assessed as cell growth at 0.5 uM incubated for 48 hrs by sulforhodamine B assay relative to control. Format: functional. The following applies: NCI-H23, 48 h, read-out: Activity.
Test [12] relates to Malme-3M. Put plainly: Growth inhibition of human MALME-3M cells assessed as cell growth at 50 uM incubated for 48 hrs by sulforhodamine B assay relative to control. It is filed as functional. The following applies: read-out: Activity.
Test [13] relates to SF-268. Put plainly: Growth inhibition of human SF268 cells assessed as cell growth at 100 uM incubated for 48 hrs by sulforhodamine B assay relative to control. Format: functional. The following applies: SF-268, 48 h, read-out: Activity.
Another test relates to K562. Put plainly: Growth inhibition of human K562 cells assessed as cell growth at 100 uM incubated for 48 hrs by sulforhodamine B assay relative to control. Format: functional. The following applies: K562, 48 h, read-out: Activity.

The results in this text go back to ChEMBL document CHEMBL3994622, “Design and synthesis of new RAF kinase-inhibiting antiproliferative quinoline derivatives. Part 2: Diarylurea derivatives” (Eur J Med Chem, 2017).

Broadly, the inhibition is the drop in the measured response relative to a control, in per cent. One may read the IC50 as the midpoint of a concentration-inhibition curve.

RAC-alpha serine/threonine-protein kinase (Homo sapiens), sequence (P31749 whole entry): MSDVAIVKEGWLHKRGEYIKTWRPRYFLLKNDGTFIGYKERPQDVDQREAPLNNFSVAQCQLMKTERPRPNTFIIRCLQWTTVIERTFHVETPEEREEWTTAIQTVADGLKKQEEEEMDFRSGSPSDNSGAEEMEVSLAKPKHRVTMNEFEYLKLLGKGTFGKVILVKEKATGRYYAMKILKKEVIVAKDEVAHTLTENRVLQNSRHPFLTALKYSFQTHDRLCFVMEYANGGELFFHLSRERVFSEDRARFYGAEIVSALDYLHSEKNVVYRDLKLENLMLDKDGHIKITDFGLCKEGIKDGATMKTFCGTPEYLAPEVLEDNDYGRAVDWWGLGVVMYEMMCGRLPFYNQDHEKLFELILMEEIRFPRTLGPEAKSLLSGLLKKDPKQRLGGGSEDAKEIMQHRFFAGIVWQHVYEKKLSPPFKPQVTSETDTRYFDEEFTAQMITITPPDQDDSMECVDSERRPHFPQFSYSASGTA

With `COc1cc2cc(Oc3ccc(NC(=O)Nc4ccc(Cl)c(C(F)(F)F)c4)cc3)c(C)nc2cc1OC`, the inhibition in [1] is 0.06%; in test [3] it was -0.3%. Besides, the growth at 30 µM in the test with BT-549 is -65%. The IC50 in test [2] amounted to 260 nM.

In the case of `COc1cc2cc(Oc3ccc(NC(=O)Nc4cccc(C(F)(F)F)c4)cc3)c(C)nc2cc1OC`, the growth at 5 µM is 31% in the test on SF-268 [4], -8% in the test on Hs-578T, 31% in the test on NCI-H322M and 18% with HCT-15 [9]. Moreover, the growth at 0.5 µM with SK-OV-3 amounted to 101%; with SK-MEL-2, 108%; in the test with MOLT-4, 95%; in the test on SNB-19 it was 96%; in the test on HCT-15 [5], 92%; in the test with T47D it was 94%. The growth at 0.5 µM in the test with SNB-75 [6] amounted to 77%; in the test on CAKI-1 it was 91%; in the test on HL-60(TB), 112%; in the test on NCI-H23, 97%. Moreover, the growth at 0.005 µM amounted to 96% in the test on NCI-H226, 94% with Malme-3M [8] and 97% in the test on ACHN [10]. For the same compound, the growth at 50 µM was -85% in the test with HOP-62; -100% with SK-MEL-5; -63% in the test on OVCAR-4; -69% in the test on RXF 393; -34% with ACHN [7]; -57% in the test on SR. Moreover, the growth at 50 µM in the test with Malme-3M [12] was -60%. The growth at 0.05 µM was found to be 108% in the test with IGROV-1, 99% in the test with U-251, 99% in the test with SNB-75 [11] and 98% with SW-620.

In the case of `COc1cc2cc(Oc3ccc(NC(=O)Nc4cc(C(F)(F)F)cc(C(F)(F)F)c4)cc3)c(C)nc2cc1OC`, the growth at 100 µM with SF-268 [13] was -71%; in the test on K562, -61%.
